{"source": "patent US10975303B2", "about": "“Additive for soil conditioning and an agricultural composition containing said additive for plant growth” (priority 2019, dated 2021)", "type_in_all_cases": "in vivo", "key": {"onion": {"system": "onion", "assay": "Growth, yield and yield attributes of onion (Test-3)", "procedure": "The method of testing effect of additive 10 on different properties of soil was similar to the method as disclosed in Test-1 of Experiment-2, except time period which is 2 months instead of 9 months. The effect of additive was tested on soil using additive 10.\nThe effect of the additive 10, agricultural composition and agricultural composition along with fertilizer prepared in accordance with the present disclosure on the growth of onion was studied. Additive 10 prepared in Experiment 1 was used for the study. The study was conducted in the presence and in absence of the additive of the present disclosure to determine the effect of the additive on onion. Further, the effect of agricultural composition and agricultural composition along with fertilizer was studied. The study was carried out at a village in Bhavnagar District (Gujarat). The study was carried out in Two Plots: one plot, the additive of the present disclosure application and the other plot, urea application under Spacing of two rows and plants (15 cm×10 cm).\nThe effect of additive 10, agricultural composition and agricultural composition along with fertilizer on growth, yield and yield attributes of onion was carried and the comparative results obtained are summarized in Table-5a."}, "Pigeon pea crop": {"system": "Pigeon pea crop", "assay": "Yield and yield attributes of pigeon pea (Test-5)", "procedure": "The study was carried out with and without the additive of the present disclosure in different plots at a village in […] District (Gujarat). The Pigeon pea crop was planted in 90 cm between two rows and 20 cm of two plants under fields. The result pertaining to plant height, number of branches per plant, number of pods per plant, grain and haulm yield of pigeon pea crop recorded at harvest as influenced by additive of the present disclosure is summarized in Table-7a. Further, the effect of the plant growth regulator and agricultural composition and the comparative results obtained are summarized in Table-7b."}, "pigeon pea (Toor)": {"system": "pigeon pea (Toor)", "assay": "Comparative report of parameters for pigeon pea (Toor), Table 7 (protein, energy, ash, minerals)", "conditions": "pigeon pea (Toor) trial"}}, "data": [{"smiles": "NC(N)=O", "note": "[urea]", "values": [{"measurement": "Ave. bulb weight", "setting": "onion", "result": 51.50, "unit": "g"}, {"measurement": "Bulb yield", "setting": "onion", "result": 34.30, "unit": "t/ha"}, {"measurement": "Leaf area", "setting": "onion", "result": 930, "unit": "cm²"}, {"measurement": "Plant height", "setting": "onion", "result": 56.00, "unit": "cm"}, {"measurement": "Grain yield", "setting": "Pigeon pea crop", "result": 1060, "unit": "kg/ha"}, {"measurement": "Haulm yield", "setting": "Pigeon pea crop", "result": 1285, "unit": "kg/ha"}, {"measurement": "Number of branches per plant", "setting": "Pigeon pea crop; at harvest", "result": 10.0}, {"measurement": "Number of pods per plant", "setting": "Pigeon pea crop; at harvest", "result": 172.0}, {"measurement": "Plant height", "setting": "Pigeon pea crop; at harvest", "result": 133.0, "unit": "cm"}, {"measurement": "Energy", "setting": "pigeon pea (Toor)", "result": 355.01, "unit": "Kcal/100 gm"}, {"measurement": "Total Ash", "setting": "pigeon pea (Toor); LOQ 0.1", "result": 3.94, "unit": "gm/100 gm"}, {"measurement": "Total Protein", "setting": "pigeon pea (Toor); LOQ 0.5", "result": 16.47, "unit": "gm/100 gm"}, {"measurement": "Calcium (as Ca)", "setting": "pigeon pea (Toor); LOQ 2.5", "result": 508.85, "unit": "mg/kg"}, {"measurement": "Iron (as Fe)", "setting": "pigeon pea (Toor); LOQ 2.5", "result": 11.48, "unit": "mg/kg"}, {"measurement": "Manganese (as Mn)", "setting": "pigeon pea (Toor); LOQ 2.5", "result": 4.71, "unit": "mg/kg"}, {"measurement": "Zinc (as Zn)", "setting": "pigeon pea (Toor); LOQ 2.5", "result": 10.99, "unit": "mg/kg"}]}]}
